Reference: US20250339391A1, “METHODS FOR EFFECTIVE MANAGEMENT OF PAIN” (South Rampart Pharma, Inc., priority 2024, published 2025)
“Also recorded” adds a separate entry of the source.

How the values were obtained:
Beagle dogs = experiment: 7-day repeat-dose oral toxicity study in Beagle dogs, Phase II (non-GLP); format: in vivo, dog
Method: 7) A Dose-Range-Finding and 7-day Repeat-Dose Oral Toxicity Study of SRP-001 in Beagle dogs (Non-GLP) In Phase II of this study, 0, 30, 100, or 300 mg/kg/d of SRP-001 was administered once daily for seven consecutive days to 1 Beagle dog/sex/dose (Calvert Labs/Altasciences, Scott Township, PA USA). Mortality/morbidity was observed twice daily and once prior to scheduled sacrifice. Clinical observations were evaluated prior to each dose administration and at approximately 1-3 h post-dose and once prior to scheduled sacrifice on day 8. Body weights were recorded on days 1 and 7, and a fasted body weight was recorded prior to scheduled sacrifice on day 8. Food consumption was recorded daily. Blood for evaluation of hematology, coagulation, and clinical chemistry parameters and urine for urinalysis was collected from all animals prior to treatment initiation and from all Phase II animals prior to scheduled sacrifice on day 8. Blood for toxicokinetic evaluation was collected at selected time points on days 1 and 7. Selected tissues were harvested and weighed at necropsy. No microscopic evaluations were performed. […] The clinical observations corroborated with findings of red discoloration in the duodenum of the control group female, the jejunum of the low-dose male, and the colon of both high-dose dogs.

[1] = system: conscious male Sprague-Dawley rats; experiment: Pulmonary function evaluation in conscious male Sprague-Dawley rats (GLP); format: in vivo, rat; conditions: 220, 440 and 660 mg/kg oral
Method: The potential effects of orally administered SRP-001 on respiratory rate, tidal volume, and minute volume in conscious male Sprague-Dawley rats was studied in 24 male rats. The rodents were trained for two days in the head-out plethysmograph chamber for 15-17 min each prior to the experiment. On the day of dosing, each animal was weighed and placed in the plethysmograph chamber, and baseline respiratory parameters were obtained for 5 min following an approximately 5-min stabilization period. The rats were then removed from the chamber and dosed by oral gavage. Three groups of six male Sprague-Dawley rats each were orally administered SRP-001 at a single dose of 220, 440, or 660 mg/kg at a dose volume of 10 mL/kg. […] Following dosing, each animal was returned to its designated plethysmograph chamber, and the respiratory parameters were recorded at 30 min (±5 min), 2, 4, and 6 h (±15 min). Animals were allowed to stabilize in the plethysmograph chamber for at least 5 min before each reading was taken. The following parameters were acquired, recorded, and analyzed using Ponemah Physiology Platform (Ponemah v.5.20 Pulmonary); Respiratory rate, Tidal Volume, and Minute Volume, Values for the test article treated group were compared to the vehicle control values using a two-way repeated measures ANOVA followed by a Bonferroni Multiple Comparison Test (SigmaStat, v. 4.0). […]

[2] = Jet milling and nano-milling: particle size and solubility; format: physicochemical
Method: In certain instances, a crystalline compound of Formula I is jet milled. Thereafter, the milled compound of Formula I is dispersed in a solution comprising 1% hydroxypropyl cellulose (1% HPC) and sterile water for injection and subjected to wet milling. The target particle size is approximately D90 0.15 μm. The disclosure provides using nanomilling and jet-milling techniques, to prepare an oral nanoparticle suspension containing 100 mg/mL SRP-001 in preserved aqueous 1% HPC. An oral nanoparticle suspension containing 100 mg/mL SRP-001 in aqueous 1% HPC preserved with 0.1% sodium benzoate was used.
The drug therapeutic candidate is manufactured in a two-step process (Latitude Pharmaceuticals, Inc., San Diego, CA USA). First, SRP-001 is jet milled. Second, the milled API is dispersed in a solution comprising 1% hydroxypropyl cellulose (1% HPC) and sterile water for injection and subjected to wet milling. The target particle size is approximately D90 0.15 μm. […] An oral nanoparticle suspension containing 100 mg/mL SRP-001 in aqueous 1% HPC preserved with 0.1% sodium benzoate was manufactured for use in nonclinical studies as Lot LPI2021028 and stored at 5° C.±3° C. […] The same formulation as above was manufactured under cGMP for use in clinical studies as Lot LPI2021031 and stored at 5° C.±3° C. […] This lot has been placed on stability at 5° C., 25° C./60% RH, and 40° C./75% RH. Finally, an appearance-matched placebo consisting of 2% microcrystalline cellulose in aqueous 1% HPC preserved with 0.1% sodium benzoate and 0.05% EDTA disodium dihydrate was manufactured under cGMP for use in clinical studies. The above oral suspensions were manufactured by Latitude Pharmaceuticals Inc. (San Diego, CA, USA).

hERG current = target: T1, hERG current (Homo sapiens, UniProt Q12809); experiment: In vitro hERG cardiotoxicity assay in human embryonic kidney cells; format: cell-based
T1 construct: expressed in transfected cells; host or cells: human embryonic kidney cells
Method: The effects of SRP-001 on hERG current amplitude at physiologic temperatures were evaluated over a nominal concentration range of 0.1 μM to 100M. A vehicle group (10% DMSO) was included in the study for comparison, and dofetilide (10 nM) was used as a reference substance. The vehicle and positive controls indicated appropriate sensitivity of the test systems. […] Next, the potential acute effects of oral SRP-001 on cardiovascular function in conscious telemetered beagle dogs was done using a Latin Square design; 4 male naïve beagle dogs each received vehicle (10% DMSO: 10% labrasol: 80% PEG400) and three doses (30, 90, and 150 mg/kg) of SRP-001 nanosuspension by oral gavage. […] A single dose was administered on the day of dosing, and a washout period of seven days was allowed between doses. One-min means of hemodynamic parameters, as well as ECG parameters and body temperature, were measured for a period of at least 24 h. One-min tracings of the ECGs were obtained at 15 min prior to dosing and at 30 min, 1, 2, 4, 8, 12, and 24 h post-dose. Qualitative evaluation of the ECGs was done by a board-certified veterinary cardiologist.

T1 sequence (Q12809 whole entry): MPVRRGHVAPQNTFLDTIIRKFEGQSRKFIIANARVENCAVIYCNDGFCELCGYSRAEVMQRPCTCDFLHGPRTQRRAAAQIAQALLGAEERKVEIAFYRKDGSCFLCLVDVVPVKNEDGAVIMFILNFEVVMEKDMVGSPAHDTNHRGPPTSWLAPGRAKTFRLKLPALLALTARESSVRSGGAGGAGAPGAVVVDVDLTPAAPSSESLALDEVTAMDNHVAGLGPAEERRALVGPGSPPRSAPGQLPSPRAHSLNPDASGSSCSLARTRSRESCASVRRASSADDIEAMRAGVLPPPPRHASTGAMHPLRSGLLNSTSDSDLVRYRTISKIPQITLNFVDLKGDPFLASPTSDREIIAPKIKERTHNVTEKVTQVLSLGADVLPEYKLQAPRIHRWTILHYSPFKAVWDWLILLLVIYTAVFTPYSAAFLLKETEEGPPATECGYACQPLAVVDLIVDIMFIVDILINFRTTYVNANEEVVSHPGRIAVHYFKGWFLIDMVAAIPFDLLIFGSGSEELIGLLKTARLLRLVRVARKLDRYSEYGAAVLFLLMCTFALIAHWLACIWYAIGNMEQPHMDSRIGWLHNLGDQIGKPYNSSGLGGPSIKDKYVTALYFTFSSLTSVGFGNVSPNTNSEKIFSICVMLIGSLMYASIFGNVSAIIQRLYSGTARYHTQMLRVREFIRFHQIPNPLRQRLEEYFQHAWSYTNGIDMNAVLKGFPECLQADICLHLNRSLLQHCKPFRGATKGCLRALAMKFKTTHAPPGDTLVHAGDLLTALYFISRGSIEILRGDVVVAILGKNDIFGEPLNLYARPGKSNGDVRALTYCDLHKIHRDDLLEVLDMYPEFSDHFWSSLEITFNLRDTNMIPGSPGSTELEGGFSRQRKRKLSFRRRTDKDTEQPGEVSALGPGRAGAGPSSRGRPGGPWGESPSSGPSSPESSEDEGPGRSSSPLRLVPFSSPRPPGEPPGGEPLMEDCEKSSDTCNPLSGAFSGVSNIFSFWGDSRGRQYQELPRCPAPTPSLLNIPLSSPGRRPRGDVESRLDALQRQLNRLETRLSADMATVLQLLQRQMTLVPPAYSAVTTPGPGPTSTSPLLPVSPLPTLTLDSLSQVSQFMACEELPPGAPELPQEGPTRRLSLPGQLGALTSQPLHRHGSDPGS

For `CCN(CC)C(=O)c1ccccc1S(=O)(=O)NCC(=O)Nc1ccc(O)cc1` [SRP-001, N,N-diethyl-2-[[2-(4-hydroxyanilino)-2-oxo-ethyl]sulfamoyl]benzamide], the clinical signs (Beagle dogs; 30, 100, 300 mg/kg/d) was “loose or soft feces and emesis”, the tolerated dose (Beagle dogs; both, Beagle, dog, in vivo, 7 d) was 300 mg/kg and the “AUC and Cmax levels” value (Beagle dogs; dog, in vivo) was “increased in a dose-dependent manner, with day 1 levels higher than those from day 7”. For the same compound, the “effects on respiratory rate, tidal volume, minute volume” value [1] was “no effects on pulmonary function or cardio-telemetry; also recorded: did not induce any significant effects”, the solubility ([2]; after jet milling and nano-milling) was “increase the solubility” and the particle size ([2]; after jet milling and nano-milling for 17 h (FIG. 25A)) was 0.1666 μm. The particle size ([2]; before milling (FIG. 25B)) was 879.33 μm, the “hERG signal / blocker class” value (hERG current; 0.1 μM to 100 μM) was “weak blocker of hERG current; also recorded: absent relevant signal” and the “block of hERG current” value (hERG current; 100 μM, highest concentration tested, physiologic temperatures) was 21.4±3.9%.
